# Data reported in ChEMBL document CHEMBL3102795, “Discovery of 1-oxa-4,9-diazaspiro[5.5]undecane-based trisubstituted urea derivatives as highly potent soluble epoxide hydrolase inhibitors and orally active drug candidates for treating of chronic kidney diseases” (Bioorg Med Chem Lett, 2014).
# What was measured:
# [1] = target: T1, Bifunctional epoxide hydrolase 2 (Rattus norvegicus, UniProt P80299); test: Inhibition of rat recombinant sEH expressed in baculovirus infected insect Sf9 cells using cyano(6-methoxynaphthalen-2-yl)methyl trans-[(3-phenyloxiran-2-yl)methyl] carbonate as substrate preincubated for 30 mins followed by substrate addition measured after 20 to 45 mins by fluorescence assay
# T1 sequence (P80299 whole entry): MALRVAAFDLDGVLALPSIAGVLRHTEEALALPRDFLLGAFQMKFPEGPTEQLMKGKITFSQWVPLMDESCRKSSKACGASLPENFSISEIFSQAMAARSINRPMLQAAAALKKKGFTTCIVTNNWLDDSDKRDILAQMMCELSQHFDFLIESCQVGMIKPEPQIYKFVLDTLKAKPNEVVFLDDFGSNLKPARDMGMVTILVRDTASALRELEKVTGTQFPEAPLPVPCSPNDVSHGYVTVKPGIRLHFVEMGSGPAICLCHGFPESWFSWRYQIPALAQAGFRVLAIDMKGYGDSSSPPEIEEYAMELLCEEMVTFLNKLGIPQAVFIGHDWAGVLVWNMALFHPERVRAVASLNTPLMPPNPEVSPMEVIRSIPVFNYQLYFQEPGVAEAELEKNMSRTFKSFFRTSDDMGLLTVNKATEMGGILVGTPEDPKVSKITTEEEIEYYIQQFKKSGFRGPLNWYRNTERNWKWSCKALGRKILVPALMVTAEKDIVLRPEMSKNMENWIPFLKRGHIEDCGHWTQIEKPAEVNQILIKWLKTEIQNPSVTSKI
# [2] = target: T2, Bifunctional epoxide hydrolase 2 (Homo sapiens, UniProt P34913); test: Inhibition of human recombinant sEH expressed in baculovirus infected insect Sf9 cells using cyano(6-methoxynaphthalen-2-yl)methyl trans-[(3-phenyloxiran-2-yl)methyl] carbonate as substrate preincubated for 30 mins followed by substrate addition measured after 20 to 45 mins by fluorescence assay
# T2 sequence (P34913 whole entry): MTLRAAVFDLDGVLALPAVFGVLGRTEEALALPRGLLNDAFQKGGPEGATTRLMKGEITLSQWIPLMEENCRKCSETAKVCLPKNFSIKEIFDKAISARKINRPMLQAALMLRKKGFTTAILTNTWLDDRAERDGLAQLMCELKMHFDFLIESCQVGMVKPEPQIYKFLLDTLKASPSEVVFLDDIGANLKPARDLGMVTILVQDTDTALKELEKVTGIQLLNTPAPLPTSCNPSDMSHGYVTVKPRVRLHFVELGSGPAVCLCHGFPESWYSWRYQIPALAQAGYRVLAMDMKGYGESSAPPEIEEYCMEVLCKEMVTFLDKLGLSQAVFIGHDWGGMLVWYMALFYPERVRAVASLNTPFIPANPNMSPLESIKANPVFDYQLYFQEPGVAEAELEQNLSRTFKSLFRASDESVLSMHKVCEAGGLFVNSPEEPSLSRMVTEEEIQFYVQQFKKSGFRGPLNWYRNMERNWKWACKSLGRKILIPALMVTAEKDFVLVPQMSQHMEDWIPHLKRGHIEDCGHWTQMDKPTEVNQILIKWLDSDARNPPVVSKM
# [3] = tested on: Liver microsome; test: Metabolic stability in human liver microsomes measured per mg of protein; type: ADME
# [4] = Solubility of the compound in simulated gastric fluid compliant with Japanese pharmacopeia; type: ADME
# [5] = Solubility of the compound in simulated intestinal fluid compliant with Japanese pharmacopeia; type: ADME
# [6] = Volume of distribution at steady state in rat at 0.2 mg/kg, iv; type: ADME, organism-based; design: dose 0.2 mg/kg, route intravenous; settings: in vivo, read-out: Vdss
# [7] = Tmax in rat at 1 mg/kg, po; type: ADME, organism-based; design: dose 1 mg/kg, route oral; settings: in vivo
# [8] = Cmax in rat at 1 mg/kg, po; type: ADME, organism-based; design: dose 1 mg/kg, route oral; settings: in vivo
# [9] = AUC (0 to infinity) in rat at 1 mg/kg, po; type: ADME, organism-based; design: time infinity, dose 1 mg/kg, route oral; settings: plasma
# [10] = AUC (0 to infinity) in rat at 0.2 mg/kg, iv; type: ADME, organism-based; design: time infinity, dose 0.2 mg/kg, route intravenous; settings: plasma
# [11] = Half life in rat at 0.2 mg/kg, iv; type: ADME, organism-based; design: dose 0.2 mg/kg, route intravenous; settings: in vivo
# [12] = Oral bioavailability in rat at 1 mg/kg; type: ADME, organism-based; settings: in vivo
# [13] = Drug uptake in rat at 0.2 mg/kg, iv at 5 mins; type: ADME, organism-based; design: dose 0.2 mg/kg, route intravenous; settings: in vivo, read-out: Drug uptake
# [14] = Total clearance in rat at 0.2 mg/kg, iv; type: ADME, organism-based; design: dose 0.2 mg/kg, route intravenous; settings: in vivo
SMILES,IC50 [1],IC50 [2],CLint [3],solubility [4],solubility [5],Vd [6],Tmax [7],Cmax [8],AUC(0-inf) [9],AUC(0-inf) [10],half-life [11],bioavailability [12],concentration at 5 min [13],clearance [14]
COc1ccccc1CC(=O)N1CCC2(CC1)CN(C(=O)Nc1ccc(OC(F)(F)F)cc1)CCO2,71.6 nM,0.5 nM,461 µL/min/mg,66 µg/mL,59 µg/mL,–,–,–,–,–,–,–,–,–
Cc1cc(C(=O)N2CCC3(CC2)CN(C(=O)Nc2ccc(OC(F)(F)F)cc2)CCO3)no1,25.7 nM,1.4 nM,47 µL/min/mg,84 µg/mL,83 µg/mL,3.31 L/kg,2 h,9.58 ng/mL,123 ng·h/mL,90.2 ng·h/mL,1.17 h,24.1%,77.7 ng/mL,36.9 mL/min/kg
O=C(Nc1ccc(OC(F)(F)F)cc1)N1CCC2(CC1)CN(C(=O)c1c(F)cccc1F)CCO2,–,5.4 nM,–,52 µg/mL,46 µg/mL,–,–,–,–,–,–,–,–,–
O=C(Nc1ccc(OC(F)(F)F)cc1)N1CCC2(CCCN(C(=O)c3c(F)cccc3F)C2)CC1,–,2.96 nM,–,–,–,–,–,–,–,–,–,–,–,–
O=C(Nc1ccc(C(F)(F)F)cc1)N1CCOC2(CCN(C(=O)c3c(F)cccc3F)CC2)C1,19.1 nM,1.3 nM,93 µL/min/mg,43 µg/mL,38 µg/mL,–,–,–,–,–,–,–,–,–
O=C(Nc1ccc(C(F)(F)F)cc1)N1CCOC2(CCN(C(=O)c3cccc(Cl)c3)CC2)C1,36.9 nM,1.2 nM,100 µL/min/mg,26 µg/mL,21 µg/mL,–,–,–,–,–,–,–,–,–
Cc1cnc(C(=O)N2CCC3(CC2)CN(C(=O)Nc2ccc(OC(F)(F)F)cc2)CCO3)cn1,8.8 nM,0.9 nM,12 µL/min/mg,91 µg/mL,92 µg/mL,1.82 L/kg,1 h,8.64 ng/mL,61.3 ng·h/mL,111 ng·h/mL,1.53 h,11.1%,134 ng/mL,30.1 mL/min/kg
O=C(Nc1ccc(C(F)(F)F)cc1)N1CCOC2(CCN(C(=O)c3ccco3)CC2)C1,–,5.4 nM,–,75 µg/mL,75 µg/mL,–,–,–,–,–,–,–,–,–
CC(C)(C)C(=O)N1CCC2(CC1)CN(C(=O)Nc1ccc(C(F)(F)F)cc1)CCO2,12 nM,2.9 nM,98 µL/min/mg,76 µg/mL,73 µg/mL,–,–,–,–,–,–,–,–,–
O=C(Nc1ccc(OC(F)(F)F)cc1)N1CCOC2(CCN(C(=O)c3cnoc3C3CC3)CC2)C1,22.2 nM,0.6 nM,87 µL/min/mg,86 µg/mL,89 µg/mL,–,–,–,–,–,–,–,–,–
O=C(Nc1ccc(C(F)(F)F)cc1)N1CCOC2(CCN(C(=O)c3ccccc3)CC2)C1,–,3.2 nM,–,62 µg/mL,63 µg/mL,–,–,–,–,–,–,–,–,–
O=C(Nc1ccc(OC(F)(F)F)cc1)N1CCOC2(CCN(C(=O)c3c(F)cccc3F)CC2)C1,18.5 nM,0.7 nM,86 µL/min/mg,44 µg/mL,39 µg/mL,–,–,–,–,–,–,–,–,–
O=C(Nc1ccc(C(F)(F)F)cc1)N1CCOC2(CCN(C(=O)c3ccc(Cl)cc3)CC2)C1,24.9 nM,1 nM,21 µL/min/mg,29 µg/mL,23 µg/mL,–,–,–,–,–,–,–,–,–
O=C(Cc1ccccn1)N1CCC2(CC1)CN(C(=O)Nc1ccc(OC(F)(F)F)cc1)CCO2,> 20 nM,0.7 nM,132 µL/min/mg,92 µg/mL,90 µg/mL,–,–,–,–,–,–,–,–,–
O=C(Nc1ccc(OC(F)(F)F)cc1)N1CCOC2(CCN(C(=O)C3CCCCC3)CC2)C1,14.5 nM,0.6 nM,357 µL/min/mg,69 µg/mL,63 µg/mL,–,–,–,–,–,–,–,–,–
O=C(Nc1ccc(OC(F)(F)F)cc1)N1CCOC2(CCN(C(=O)C3(c4ccccc4)CC3)CC2)C1,28 nM,0.4 nM,228 µL/min/mg,37 µg/mL,33 µg/mL,–,–,–,–,–,–,–,–,–
O=C(Nc1ccc(C(F)(F)F)cc1)N1CCOC2(CCN(C(=O)c3ccccc3Cl)CC2)C1,13 nM,1.4 nM,48 µL/min/mg,10 µg/mL,12 µg/mL,–,–,–,–,–,–,–,–,–
O=C(CC1CC1)N1CCC2(CC1)CN(C(=O)Nc1ccc(C(F)(F)F)cc1)CCO2,31.4 nM,2.1 nM,74 µL/min/mg,79 µg/mL,79 µg/mL,–,–,–,–,–,–,–,–,–
O=C1Cc2cc(C(=O)N3CCC4(CC3)CN(C(=O)Nc3ccc(OC(F)(F)F)cc3)CCO4)ccc2N1,> 20 nM,1.8 nM,29 µL/min/mg,96 µg/mL,93 µg/mL,–,–,–,–,–,–,–,–,–
O=C(Nc1ccc(OC(F)(F)F)cc1)N1CCOC2(CCN(C(=O)c3cc(Cl)ccn3)CC2)C1,11.6 nM,0.6 nM,62 µL/min/mg,90 µg/mL,89 µg/mL,–,–,–,–,–,–,–,–,–
CC(=O)Nc1ccccc1C(=O)N1CCC2(CC1)CN(C(=O)Nc1ccc(C(F)(F)F)cc1)CCO2,6.8 nM,0.8 nM,39 µL/min/mg,92 µg/mL,93 µg/mL,–,–,–,–,–,–,–,–,–
N#Cc1ccc(C(=O)N2CCC3(CC2)CN(C(=O)Nc2ccc(C(F)(F)F)cc2)CCO3)cc1,15 nM,1.9 nM,3 µL/min/mg,85 µg/mL,82 µg/mL,–,–,–,–,–,–,–,–,–
O=C(Nc1ccc(OC(F)(F)F)cc1)N1CCCC2(CCN(C(=O)c3c(F)cccc3F)CC2)C1,3.3 nM,0.125 nM,602 µL/min/mg,9 µg/mL,9 µg/mL,–,–,–,–,–,–,–,–,–
O=C(Nc1ccc(OC(F)(F)F)cc1)N1CCOC2(CCN(C(=O)c3c[nH]nc3C3CC3)CC2)C1,96.9 nM,1.1 nM,35 µL/min/mg,93 µg/mL,92 µg/mL,–,–,–,–,–,–,–,–,–
O=C(Nc1ccc(C(F)(F)F)cc1)N1CCOC2(CCN(C(=O)c3ccccn3)CC2)C1,–,4.2 nM,–,85 µg/mL,83 µg/mL,–,–,–,–,–,–,–,–,–
